One data set deals with fibroblasts. On the set-up: species or system Rhino mice (RHJ/LeJ). To be noted: mouse, in vivo.
The test system of the next data set is back skin of Rhino mice. The settings on record: Rhino (RHJ/LeJ), mouse, in vivo.
The test system of the next data set is utriculi. Further details: species or system Rhino mice (RHJ/LeJ). The settings on record: mouse, in vivo.
In a further data set the test system is sebocytes. On the set-up: species or system Rhino mice (RHJ/LeJ). To be noted: mouse, in vivo.
Another data set deals with epidermis (back skin). To be noted: Rhino (RHJ/LeJ), mouse, in vivo.
Data set [1] deals with sebaceous lipids in sebum (fatty acid, squalene, cholesterol, wax esters, cholesteryl ester). Further details: species or system Rhino mice (RHJ/LeJ). The settings on record: mouse, in vivo.
Another data set deals with sebaceous glands. Further details: species or system Rhino mice (RHJ/LeJ). The settings on record: mouse, in vivo.
The test system of the next data set is Substance P. On the set-up: species or system Rhino mice (RHJ/LeJ). To be noted: mouse, in vivo.
Data set [2] has as its system dermis (inflammatory infiltrate). To be noted: Rhino (RHJ/LeJ), mouse, in vivo.
The next data set deals with IL-1 alpha. On the set-up: species or system Rhino mice (RHJ/LeJ). The settings on record: mouse, in vivo.
For another data set, the system named is dorsal skin. The settings on record: Rhino (RHJ/LeJ), mouse, in vivo.
In the next data set the test system is keratinocytes. On the set-up: species or system Rhino mice (RHJ/LeJ). The settings on record: mouse, in vivo.

Where “and” joins values, the source holds several entries; their conditions need not be identical. Equal entries are not always repeated.

For the compound `COc1ccc(-c2ccc3cc(C(=O)O)ccc3c2)cc1C12CC3CC(CC(C3)C1)C2` [Adapalene], in the data set on fibroblasts, the “Increase of Ki67 positive cells in dermis (fibroblasts)” value amounted to 43%; the “Ki67 positive cells per mm^2” value is 1229.8 cells per mm^2 and 1499.9 cells per mm^2 and 2072.0 cells per mm^2 and 1218.1 cells per mm^2 and 1088.8 cells per mm^2 and 1181.9 cells per mm^2. Moreover, in the data set on back skin of Rhino mice, the “Erythema mean score on dorsal skin” value was 0.3-1.1 and the “Scaling mean score on dorsal skin” value is 0.5-1.3. Besides, in the data set on utriculi, the “Decrease in the surface area of the utriculi” value came to 94%; the utriculi surface is 515.3 μm^2 and 545.4 μm^2 and 585.7 μm^2 and 515.2 μm^2 and 806.1 μm^2 and 527.4 μm^2 and 605.0 μm^2. Moreover, the “Ki67 positive cells per mm^2” value in the data set with sebocytes is 3722.1 cells per mm^2 and 4331.9 cells per mm^2 and 3916.9 cells per mm^2 and 3392.4 cells per mm^2 and 4299.5 cells per mm^2 and 2928.2 cells per mm^2. For the same compound, in the data set on epidermis (back skin), the “Increase in epidermis thickness (hyperplasia)” value is on record as “+188%”. In [1], the “Induction of increased excretion of fatty acid to the epidermis” value is reported as “did not”. Also, the “Increase of sebaceous glands surface versus vehicle group” value with sebaceous glands was “+82%”. Moreover, the “Substance P concentration in back skin” value in the data set on Substance P is 335.5 pg/g tissue and 414.1 pg/g tissue and 453.4 pg/g tissue and 409.8 pg/g tissue and 403.9 pg/g tissue and 491.3 pg/g tissue. Besides, the “Increase of inflammation of the dermis” value in data set [2] is listed as “+23%”. Moreover, in the data set on IL-1 alpha, the “Decrease of IL-1 alpha level versus vehicle” value was 96%; the “IL-1 alpha Concentration” value is 50.4 ng/g tissue and 40.3 ng/g tissue and 45.1 ng/g tissue and 47.8 ng/g tissue and 69.3 ng/g tissue and 36.4 ng/g tissue; the “IL-1 alpha level in back skin (mean±SD)” value was 47.7±11.5 ng/g tissue. For the same compound, in the data set with dorsal skin, the “Thickening of the dorsal skin as compared to the vehicle group” value was “+14%”. For the same compound, in the data set on keratinocytes, the “Increase of Ki67 positive cells in epidermis (keratinocytes)” value is on record as 30%; the “Ki67 positive cells per mm^2” value was 4411.7 cells per mm^2 and 4260.9 cells per mm^2 and 4248.9 cells per mm^2 and 3981.7 cells per mm^2 and 4121.7 cells per mm^2 and 4733.8 cells per mm^2.

(Values after patent publication US20240016718A1 (priority 2020, published 2024).)
